# From publication PMC12381025 (Scientific Reports, 2025)
# Tests used:
# α-amylase = experiment: α-Amylase inhibition assay; format: biochemical; conditions: versus standard inhibitor acarbose
# α-glucosidase = experiment: α-Glucosidase inhibition assay; format: biochemical; conditions: versus standard inhibitor acarbose
smiles,measurement,setting,value
"O=C(CCc1nc2ccccc2[nH]1)N/N=C/c1cc2ccccc2nc1SCC(=O)Nc1ccc(F)cc1 [Compound 12n, (E)-2-((3-((2-(3-(1 H-benzo[d]imidazol-2-yl)propanoyl)hydrazineylidene)methyl)quinolin-2-yl)thio)-N-(4-fluorophenyl)acetamide]",fold more potent than acarbose against α-amylase,α-amylase,23.8 fold
same,fold more potent than acarbose against α-glucosidase,α-glucosidase,5 fold
